In US5466784A, “Monoclonal antibodies to salinomycin and method for detecting the same” (The United States of America as represented by the …, priority 1993, dated 1995):

Experiments:
[1] = test system: the 16 anti-salinomycin monoclonal antibodies SAL02-SAL13 and SAL22-SAL25; test: Competitive inhibition ELISA, result stated for the antibodies as a group; format: binding, mouse
Protocol: (§1) The supernatant culture fluid from the cloned hybridomas may also be screened to select for those producing antibodies having a high affinity for salinomycin. Affinity my be measured using a variety of well known techniques, such as ELISA, RIA or equilibrium dialysis using labelled salinomycin. […] In accordance with this embodiment, the antibody containing supernatant is added to a salinomycin coated solid substrate such as the wells of an assay plate, together with a range of concentrations of free salinomycin as a competitor. Following incubation and washing, bound antibody in the wells is determined in the same manner as the db-ELISA. Percent inhibition may be calculated as (1-B/BO)×100 where B is the OD of a well with a competitor and BO is the mean OD of the wells without competitor (control). […] However, for even greater accuracy, the affinity may be alternatively measured at 50% inhibition (IC50).
(§2) For the competitive inhibition ELISA, the wells of a 96-well microtiter plate were coated with 250 ng SAL-BSA and blocked with ovalbumin as previously described. Two hundred μL of a competitor (free salinomycin at 20-100 ng/100 μL) in assay buffer, were added to row 2 of an antigen-coated well. The remaining wells in that row received 100 μL of assay buffer. A 100 μL aliquot of competitor was withdrawn from row 2 and serially diluted across the microtiter plate into wells 3-10. Wells 11 and 12 received no competitor. […] Plates were incubated for 1-h at 37° C. and processed as described above in the db ELISA. Percent inhibition was calculated by the following method: (1-B/B0)×100where B=the OD of a well with a competitor and B0 =mean ODs of the wells without competitor (i.e. wells 11 and 12).
(§3) Antibody Characterization. The 16 monoclonal antibodies were further evaluated for their ability to distinguish between commonly used ionophoric coccidiostats. The competitive inhibition ELISA described supra was repeated with the ionophores salinomycin (SAL), narasin (NAR), lasalocid (LAS) and monensin (MON) as competitors.

[2] = test system: anti-salinomycin monoclonal antibody SAL02 (IgG2a, kappa; hybridoma ATCC HB 11954); test: Competitive inhibition ELISA (SAL-BSA coated wells); format: binding, mouse; conditions: mean ± SD, n = 10 assays
Protocol: as §1, §2, §3

[3] = test system: anti-salinomycin monoclonal antibody SAL03 (IgG2a, kappa); test: as above; format: binding, mouse; conditions: mean ± SD, n = 10 assays
Protocol: as §1, §2, §3

[4] = test system: anti-salinomycin monoclonal antibody SAL04 (IgG2a, kappa); test: as above; format: binding, mouse; conditions: mean ± SD, n = 10 assays
Protocol: as §1, §2, §3

[5] = test system: anti-salinomycin monoclonal antibody SAL05 (IgG2a, kappa); test: as above; format: binding, mouse; conditions: for Mean 50% Inhibition Value (IC50) of competitor: mean ± SD, n = 10 assays
Protocol: as §1, §2, §3

[6] = test system: anti-salinomycin monoclonal antibody SAL06 (IgG2a, kappa); test: as above; format: binding, mouse; conditions: mean ± SD, n = 10 assays
Protocol: as §1, §2, §3

[7] = test system: anti-salinomycin monoclonal antibody SAL07 (IgG2a, kappa); test: as above; format: binding, mouse; conditions: mean ± SD, n = 10 assays
Protocol: as §1, §2, §3

[8] = test system: anti-salinomycin monoclonal antibody SAL08 (IgG2a, kappa); test: as above; format: binding, mouse; conditions: mean ± SD, n = 10 assays
Protocol: as §1, §2, §3

[9] = test system: anti-salinomycin monoclonal antibody SAL09 (IgG2a, kappa); test: as above; format: binding, mouse; conditions: mean ± SD, n = 10 assays
Protocol: as §1, §2, §3

[10] = test system: anti-salinomycin monoclonal antibody SAL10 (IgG2a, kappa); test: as above; format: binding, mouse; conditions: for Mean 50% Inhibition Value (IC50) of competitor: mean ± SD, n = 10 assays
Protocol: as §1, §2, §3

[11] = test system: anti-salinomycin monoclonal antibody SAL11 (IgG2a, kappa); test: as above; format: binding, mouse; conditions: mean ± SD, n = 10 assays
Protocol: as §1, §2, §3

[12] = test system: anti-salinomycin monoclonal antibody SAL12 (IgG2a, kappa); test: as above; format: binding, mouse; conditions: mean ± SD, n = 10 assays
Protocol: as §1, §2, §3

[13] = test system: anti-salinomycin monoclonal antibody SAL13 (IgG2a, kappa); test: as above; format: binding, mouse; conditions: mean ± SD, n = 10 assays
Protocol: as §1, §2, §3

[14] = test system: anti-salinomycin monoclonal antibody SAL22 (IgG2a, kappa); test: as above; format: binding, mouse; conditions: mean ± SD, n = 10 assays
Protocol: as §1, §2, §3

[15] = test system: anti-salinomycin monoclonal antibody SAL23 (IgG2a, kappa); test: as above; format: binding, mouse; conditions: mean ± SD, n = 10 assays
Protocol: as §1, §2, §3

[16] = test system: anti-salinomycin monoclonal antibody SAL24 (IgG2a, kappa); test: as above; format: binding, mouse; conditions: mean ± SD, n = 10 assays
Protocol: as §1, §2, §3

[17] = test system: anti-salinomycin monoclonal antibody SAL25 (IgG2a, kappa); test: as above; format: binding, mouse; conditions: mean ± SD, n = 10 assays
Protocol: as §1, §2, §3

[18] = test system: monoclonal antibodies to salinomycin of Miller et al. (immunogen linked through succinate at C-20); conditions: prior art antibodies; cited from earlier work
[19] = at or below 100 ng/well (10 ppm), Table I footnote
[20] = at or below 1000 ng/well, all 16 antibodies

| Structure (SMILES) | inhibition of antigen-antibody binding by competitor [1, 19] | inhibition of antigen-antibody binding by competitor [1, 20] | Mean 50% Inhibition Value (IC50) of competitor [2] | Mean 50% Inhibition Value (IC50) of competitor [3] | Mean 50% Inhibition Value (IC50) of competitor [4] | Mean 50% Inhibition Value (IC50) of competitor [5] | Mean 50% Inhibition Value (IC50) of competitor [6] | Mean 50% Inhibition Value (IC50) of competitor [7] | Mean 50% Inhibition Value (IC50) of competitor [8] | Mean 50% Inhibition Value (IC50) of competitor [9] | Mean 50% Inhibition Value (IC50) of competitor [10] | Mean 50% Inhibition Value (IC50) of competitor [11] | Mean 50% Inhibition Value (IC50) of competitor [12] | Mean 50% Inhibition Value (IC50) of competitor [13] | Mean 50% Inhibition Value (IC50) of competitor [14] | Mean 50% Inhibition Value (IC50) of competitor [15] | Mean 50% Inhibition Value (IC50) of competitor [16] | Mean 50% Inhibition Value (IC50) of competitor [17] | further results |
| --- | --- | --- | --- | --- | --- | --- | --- | --- | --- | --- | --- | --- | --- | --- | --- | --- | --- | --- | --- |
| CC[C@@H](C(=O)[C@@H](C)[C@@H](O)[C@H](C)CCc1ccc(C)c(O)c1C(=O)O)[C@H]1O[C@](CC)([C@H]2CC[C@](O)(CC)[C@H](C)O2)C[C@@H]1C [lasalocid] | Neither Lasalocid or Monensin inhibited the antigenantibody binding | no inhibition of antigen-antibody binding |  |  |  |  |  |  |  |  |  |  |  |  |  |  |  |  |  |
| CC[C@@H](C(=O)[C@@H](C)[C@@H](O)[C@H](C)[C@@H]1O[C@@H]([C@@H](CC)C(=O)O)CC[C@@H]1C)[C@H]1O[C@]2(C=C[C@@H](O)[C@]3(CC[C@@](C)([C@H]4CC[C@](O)(CC)[C@H](C)O4)O3)O2)[C@H](C)C[C@@H]1C [salinomycin] |  |  | 0.62 ± 0.11 ng/well | 0.78 ± 0.72 ng/well | 0.35 ± 0.17 ng/well | 0.33 ± 0.10 ng/well | 0.78 ± 0.62 ng/well | 1.44 ± 1.28 ng/well | 0.60 ± 0.30 ng/well | 0.97 ± 0.28 ng/well | 1.76 ± 0.29 ng/well | 0.57 ± 0.25 ng/well | 0.49 ± 0.28 ng/well | 0.75 ± 0.49 ng/well | 0.56 ± 0.23 ng/well | 0.92 ± 0.15 ng/well | 1.15 ± 0.45 ng/well | 0.61 ± 0.18 ng/well | concentration that resulted in 20% inhibition (IC20) of control activity ([5]; free salinomycin as competitor): 0.174 ng; concentration that resulted in 50% inhibition IC50 ([5]; free salinomycin as competitor): 0.33 ng; concentration that resulted in 20% inhibition (IC20) of control activity ([10]; free salinomycin as competitor): 0.793 ng; concentration that resulted in 50% inhibition IC50 ([10]; free salinomycin as competitor): 1.76 ng; detection limit (reported) [18]: 50 ng; sensitivity (reported) [18]: 50 ng per well |
| CC[C@@H](C(=O)O)[C@@H]1O[C@@H]([C@@H](C)[C@H](O)[C@H](C)C(=O)[C@H](CC)[C@H]2O[C@]3(C=C[C@@H](O)[C@]4(CC[C@@](C)([C@H]5CC[C@](O)(CC)[C@H](C)O5)O4)O3)[C@H](C)C[C@@H]2C)[C@@H](C)C[C@@H]1C [narasin] |  |  | 0.97 ± 0.97 ng/well | 0.82 ± 0.58 ng/well | 0.34 ± 0.15 ng/well | 0.52 ± 0.62 ng/well | 0.39 ± 0.15 ng/well | 0.93 ± 0.85 ng/well | 1.09 ± 0.15 ng/well | 1.17 ± 0.27 ng/well | 1.18 ± 0.49 ng/well | 0.69 ± 0.28 ng/well | 0.67 ± 0.19 ng/well | 0.55 ± 0.20 ng/well | 0.51 ± 0.09 ng/well | 0.99 ± 0.25 ng/well | 0.98 ± 0.46 ng/well | 0.68 ± 0.34 ng/well |  |
| CC[C@@]1([C@@H]2O[C@@H]([C@H]3O[C@@](O)(CO)[C@H](C)C[C@@H]3C)C[C@@H]2C)CC[C@H]([C@]2(C)CC[C@]3(C[C@H](O)[C@@H](C)[C@@H]([C@@H](C)[C@@H](OC)[C@H](C)C(=O)O)O3)O2)O1 [monensin] | Neither Lasalocid or Monensin inhibited the antigenantibody binding | no inhibition of antigen-antibody binding |  |  |  |  |  |  |  |  |  |  |  |  |  |  |  |  |  |
